Several values for one entry are separate records, joined by “and”; a condition that tells them apart may be missing. Identical values can stand only once. Entries after “also recorded” stand apart in the source; their conditions may differ. Blank lines part the entries; values can stand above or below the molecule they belong to.
How the values were obtained:
[1] = system: human retinal pericytes (HRPC); assay: Human retinal pericyte proliferation assay (Methylene blue, OD650); assay type: cell-based; conditions: for HRPC proliferation: initial experiment, treated once, medium not changed; for toxicity on HRPC: initial assay
Experimental: In addition to studies with primary cell cultures of bovine retinal pericytes described above, experiments were performed with a human cell line obtained from Clonetics (San Diego, Calif.) of retinal pericytes (catalog no. CC-2542 PyCRt). These human retinal pericytes (HRPC) were cultured in Dulbecco's modified Eagle's medium (DMEM, Gibco BRL, Grand Island, N.Y.) with 5.6 mM glucose and 20% fetal bovine serum (FBS, Gibco BRL, Grand Island, N.Y.).
Proliferation assays were performed as follows: HRPC were plated onto 24-well culture plates (3000 cells/well) in 5 or 10% FBS-DMEM with 5.6 mM glucose and incubated overnight. The cells were treated once with vehicle alone or with vehicle and several concentrations of XMP.627 ([SEQ ID NO: 4]), XMP.664 ([SEQ ID NO: 5]), XMP.679 ([SEQ ID NO: 3]), or XMP.728 ([SEQ ID NO: 6]) for 5 or 6 days. The medium was not changed, nor were additional amounts of test compounds added as described in the experiments of part A above. The cells were fixed and stained with Methylene blue and proliferation assayed by observation at OD650.

[2] = system: bovine retinal endothelial cells (BREC); assay: Cell growth assay (DNA content) in bovine retinal endothelial cells; assay type: cell-based
Experimental: Primary cultures of bovine retinal endothelial cells (BREC) were isolated by homogenization and a series of filtration steps as described in King et al., J. Clin. Invest., 1985, 75:1028-36. BREC were subsequently cultured with endothelial cell basal medium (EBM; Clonetics, San Diego, Calif.). supplemented with 10% plasma-derived horse serum (PDHS), 50 mg/l heparin, and 50 μg/ml endothelial cell growth factor (ECGF, Roche, Indianapolis, Ind.). Cells were characterized for homogeneity by their immunoreactivity with anti-factor VIII antibody. Cells remained morphologically unchanged under these conditions, as confirmed by light microscopy. Only cells from passages 2 through 7 were used for the experiments.
(§1) A cell growth assay was performed as follows: Cells were plated onto 12-well culture plates and incubated overnight. The cells were treated with vehicle, vascular endothelial growth factor (VEGF, R & D Systems, Minneapolis, Minn.) at 25 ng/ml, serum, compounds, or combinations thereof. The medium is changed during the incubation period, with fresh medium and fresh test compound added every 2 days. After incubation for indicated time period at 37° C., the cells were lysed in 0.1% SDS and DNA content was measured by means of Hoechst-33258 dye and a fluorometer (model TKO-100, Hoefer Scientific Instruments, San Francisco, Calif.). It has been shown that total cellular DNA content measured in this manner correlates closely with actual cell number as determined by hemocytometer counting of trypsinized cells.
(§2) Determinations were performed in triplicate and all experiments were repeated at least three times. Results are expressed as the mean ±standard deviation, unless otherwise indicated. Statistical analysis employed Student's t-test or analysis of variance to compare quantitative data populations with normal distributions and equal variance. Data were analyzed using the Mann-Whitney rank sum test or the Kruskal-Wallis test for populations with non-normal distributions or unequal variance. A P-value of <0.05 was considered statistically significant.

[3] = system: bovine retinal pericytes (BRPC); assay: Cell growth assay (DNA content, cell number) in bovine retinal pericytes; assay type: cell-based
Experimental: as §1, §2
Primary cultures of bovine retinal pericytes (BRPC) were isolated by homogenization and a series of filtration steps as described in King et al., J. Clin. Invest., 1985, 75:1028-36. BRPC were cultured in Dulbecco's modified Eagle's medium (DMEM, Gibco BRL, Grand Island, N.Y.) with 5.5 mM glucose and 20% fetal bovine serum (FBS, Gibco BRL, Grand Island, N.Y.). Cells were characterized for homogeneity by their immunoreactivity with monoclonal antibody 3G5 [Nayak et al., J. Exp. Med. 1988, 167:1003-15]. Cells remained morphologically unchanged under these conditions, as confirmed by light microscopy. Only cells from passages 2 through 7 were used for the experiments.
A cell growth assay was performed as described above in Example 1 and the medium was changed, with fresh medium and fresh test compound added every 2 or 3 days, preferably every 2 days. […] At 20% FBS a six to seven fold increase of total DNA was detected.

[4] = system: MAP kinase phosphorylation; assay: MAP kinase phosphorylation in BRPC; assay type: cell-based, bovine; conditions: 75 μg/ml
Experimental: Experiments were also performed in which the level of MAP kinase phosphorylation was determined in BRPC treated with 75 μg/ml rBPI21 or 5 μg/ml XMP.679. […] These observations indicate that exemplary BPI protein products rBPI21 and, to a lesser extent, XMP.679, enhance MAP kinase phosphorylation in BRPC.

[5] = system: Bovine retinal pigment epithelial cells (RPEC); assay: Cell growth assay in bovine retinal pigment epithelial cells; assay type: cell-based; conditions: 75 μg/ml
Experimental: as §1
Bovine retinal pigment epithelial cells (RPEC) were isolated by gentle scraping after removal of the neural retina and incubation with 0.2% collagenase as described in King et al., Diabetes, 1987, 36:1460-7. RPEC were cultured in DMEM with 5.5 mM glucose and 10% calf serum (CS, Gibco BRL, Grand Island, N.Y.). Cells were cultured in 5% CO2 at 37° C., and media were changed every other days. Cells were characterized for their homogeneity by immunoreactivity with anti-cytokeratin antibody for RPEC. […]

Molecule: XMP.711: BPI protein product, SEQ ID NO: 7 (KLARK; XMP.711; listed as Homo sapiens)
HRPC proliferation [1]: little or no proliferation

Molecule: XMP.664: BPI-derived peptide, SEQ ID NO: 5 (KLFRAQAK; XMP.664; listed as Homo sapiens)
effect on HRPC growth ([1]; 10 μg/ml and higher, 5% FBS): slight growth inhibitory effect
effect on HRPC proliferation ([1]; 10 μg/ml, 10% FBS): increased HRPC proliferation
concentration of maximum HRPC proliferation ([1]; 5% FBS): approximately 5 μg/ml
effect on HRPC proliferation ([1]; above 10 μg/ml, 10% FBS): inhibited proliferation
effect on HRPC proliferation ([1]; approximately 0.5, 1, 5 μg/ml, 5% FBS): increased HRPC proliferation in a dose responsive manner

Molecule: XMP.627: BPI-derived peptide, SEQ ID NO: 4 (KLFRAQAKAKG; XMP.627; listed as Homo sapiens)
concentration of maximum HRPC proliferation ([1]; 5% FBS): approximately 5 μg/ml
effect on HRPC proliferation ([1]; 10% FBS): did increase HRPC proliferation
effect on HRPC growth ([1]; above 10 μg/ml, 5% FBS): slight growth inhibitory effect
effect on HRPC proliferation ([1]; approximately 0.5, 1, 5, 8 μg/ml, 5% FBS): increased HRPC proliferation in a dose responsive manner

Molecule: XMP.768: BPI protein product, SEQ ID NO: 14 (KLFRAQAK; XMP.768; listed as Homo sapiens)
HRPC proliferation [1]: enhanced the proliferation of HRPC

Molecule: XMP.676: BPI protein product, SEQ ID NO: 13 (KAVIQVVAKK; XMP.676; listed as Homo sapiens)
HRPC proliferation [1]: enhanced the proliferation of HRPC

Molecule: VEGF [reference compound]
increase of DNA content ([2]; VEGF alone at 25 ng/ml): 3 to 5 fold and 3 to 4 fold

Molecule: XMP.851: BPI protein product, SEQ ID NO: 15 (KLFRAQA; XMP.851; listed as Homo sapiens)
HRPC proliferation [1]: enhanced the proliferation of HRPC

Molecule: XMP.365: BPI protein product, SEQ ID NO: 11 (KWLIQLFHKK; XMP.365; listed as Homo sapiens)
toxicity on HRPC [1]: some toxicities

Molecule: XMP.718: BPI protein product, SEQ ID NO: 10 (KLFRKA; XMP.718; listed as Homo sapiens)
toxicity on HRPC [1]: some toxicities

Molecule: XMP.861: BPI protein product, SEQ ID NO: 9 (KLFRA; XMP.861; listed as Homo sapiens)
HRPC proliferation [1]: little or no proliferation

Molecule: XMP.852: BPI protein product, SEQ ID NO: 8 (KLFRAQ; XMP.852; listed as Homo sapiens)
HRPC proliferation [1]: little or no proliferation

Molecule: XMP.629: BPI protein product, SEQ ID NO: 12 (KLFRAQAKA; XMP.629; listed as Homo sapiens)
HRPC proliferation [1]: enhanced the proliferation of HRPC

Molecule: XMP.728: BPI-derived peptide, SEQ ID NO: 6 (KLFKAQAKAKG; XMP.728; listed as Homo sapiens)
effect on HRPC proliferation ([1]; 10% FBS): to lesser extent
effect on HRPC proliferation ([1]; only at approximately 5 μg/ml, 5% FBS): increased HRPC proliferation

time of maximum MAP kinase phosphorylation after addition [4]: 15 min
maximum MAP kinase phosphorylation compared with 20% FBS ([4]; 15 minutes): nearly equaled the effect of 20% FBS
B1: rBPI21: recombinant N-terminal BPI analog, amino acids 1 to approximately 193 or 199, cysteine 132 substituted with alanine (protein, UniProt P17213 32-224, looked up, variant C132A)
chain: VNPGVVVRISQKGLDYASQQGTAALQKELKRIKIPDYSDSFKIKHLGKGHYSFYSMDIREFQLPSSQISMVPNVGLKFSISNANIKISGKWKAQKRFLKMSGNFDLSIEGMSISADLKLGSNPTSGKPTITASSCSSHINSVHVHISKSKVGWLIQLFHKKIESALRNKMNSQVCEKVTNSVSSELQPYFQTL
effect on DNA content ([2]; 5 μg/ml compound, with and without VEGF): did not have a significant effect
effect on DNA content (VEGF-dependent growth) ([2]; VEGF 25 ng/ml plus 25 μg/ml compound): did not have a significant effect
effect on DNA content (VEGF-dependent growth) ([2]; VEGF 25 ng/ml plus 75 μg/ml compound): decreased significantly the DNA content; also recorded: prevented VEGF-dependent growth
effect on total DNA content (growth) ([2]; compound alone without VEGF, 25 or 75 μg/ml): did not have a significant effect
stimulation of proliferation ([3]; 75 μg/mL, 5, 10 or 15% FBS): 3 fold
increase of DNA above basal level ([3]; 75 μg/ml, 5% FBS): 5 fold
maximum growth compared with 20% FBS ([3]; 75 μg/ml, 5% FBS): almost equaled the growth effect of 20% FBS
growth compared with 20% FBS ([3]; 75 μg/ml, 15% FBS): increased the growth greater then 20% FBS
effect on DNA content ([3]; 5, 25, 75 μg/ml, 5% FBS): increased DNA content in a dose responsive manner
total number of cells per well ([3]; 5, 25, 75 μg/ml, 5% FBS): increased in a dose responsive manner
effect on growth ([3]; 5, 25 and 75 μg/ml, 10% FBS): induced the growth of pericyte
growth compared with 20% FBS ([3]; 25 and 75 μg/ml, 10% FBS): appeared to improve growth above that of 20% FBS
effect on MAP kinase phosphorylation ([4]; 1 to 60 minutes): increased MAP kinase phosphorylation over time
HRPC proliferation [1]: little or no proliferation
effect on RPEC growth [5]: had no effect
